Experimental data published in patent publication US12209099B2, “Azetidobenzodiazepine dimers and conjugates comprising them for use in the treatment of cancer” (MEDIMMUNE LIMITED, priority 2019, dated 2025).

tested on: carcinoma cell line NCI-N87; test: Cytotoxicity assay of warheads (MTS, 7 days); assay type: cell-based; settings: Homo sapiens, 168 h, NCI-N87, 7 days incubation, mean of three independent replicates
Description: The potency of the molecules were measured via in vitro cytotox assays in the carcinoma cell line NCI-N87.
Solid material was dissolved in DMSO to a 2 mM stock solution, from which eight serial dilutions were made at a 1:10 ratio in DMSO and stored at −20° C. until use.
Adherent NCI-N87 cells were washed with D-PBS and detached with Trypsin-EDTA, cell density and viability were then determined in duplicate by Trypan blue exclusion assay using an automated cell counter (LUNA-II™). Cell suspension was diluted to 1×10^5 cells/ml in growth media (RPMI 1640 with Glutamax+10% (v/v) HyClone™ Fetal Bovine Serum) and vortexed before dispensing 2 mL per well into sterile 3 mL polypropylene plates. Warhead dilutions were then dispensed into the appropriate wells at 10 μl/well and mixed by repeat pipetting. For control wells 10 μl of DMSO was dispensed onto 2 mL cell suspension, and thoroughly mixed. 100 μl of each sample was then aliquoted into 2 replicate wells of a sterile flat 96-well microplate and incubated in a 37° C. CO2-gassed (5%) incubator. At the end of the incubation period time (7 days), cell viability was measured by CellTiter 96 Aqueous One (MTS) assay, which was dispensed at 20 μl/well and incubated for 4 hours at 37° C., 5% CO2. Plates were then read on an EnVision Multi-label Plate Reader (Perkin Elmer) using absorbance at 490 nm.
Cell survival percentage was calculated from the mean absorbance of the 2 replicate wells for each sample, compared to the mean absorbance in the two control wells treated with DMSO only (100%). The IC50 was determined by fitting each data set to sigmoidal dose-response curves with a variable slope using the non-linear curve fit algorithm on the GraphPad Prism software (San Diego, CA).
All the experiments in this report were carried out and tested in three independent experiments. Data are reported as the mean of the three independent replicates.

Compared with COc1cc2c(cc1OCCCOc1cc3c(cc1OC)C(=O)N1CC[C@H]1C=N3)N=C[C@@H]1CCN1C2=O [Ex2A, (10aS,10a′S)-7,7′-(propane-1,3-diylbis(oxy))bis(6-methoxy-1,10a-dihydroazeto[1,2-a]benzo[e][1,4]diazepin-4(2H)-one)], COc1cc2c(cc1OCCCCCOc1cc3c(cc1OC)C(=O)N1CC[C@H]1C=N3)N=C[C@@H]1CCN1C2=O [Ex1, (10aS,10a′S)-7,7′-(pentane-1,5-diylbis(oxy))bis(6-methoxy-1,10a-dihydroazeto[1,2-a]benzo[e][1,4]diazepin-4(2H)-one)] is 32-fold lower in IC50: 70.1 nM for the first, 2.2 nM for the second. The second is the more potent here.

COc1cc2c(cc1OCc1cccc(COc3cc4c(cc3OC)C(=O)N3CC[C@H]3C=N4)c1)N=C[C@@H]1CCN1C2=O [Ex2B, (10aS,10a′S)-7,7′-((1,3-phenylenebis(methylene))bis(oxy))bis(6-methoxy-1,10a-dihydroazeto[1,2-a]benzo[e][1,4]diazepin-4(2H)-one)] showed an IC50 of 4.04 nM.
